Reference: PMC9945182 (Chemical Research in Toxicology, 2023)

Key:
[1] = molecular target: T1, CYP2A6 (Homo sapiens, UniProt P11509); type: biochemical; conditions: 10 μM inhibitor; nicotine substrate; CYP2A6 microsomes; vs 100% activity control
T1 sequence (P11509 1-494): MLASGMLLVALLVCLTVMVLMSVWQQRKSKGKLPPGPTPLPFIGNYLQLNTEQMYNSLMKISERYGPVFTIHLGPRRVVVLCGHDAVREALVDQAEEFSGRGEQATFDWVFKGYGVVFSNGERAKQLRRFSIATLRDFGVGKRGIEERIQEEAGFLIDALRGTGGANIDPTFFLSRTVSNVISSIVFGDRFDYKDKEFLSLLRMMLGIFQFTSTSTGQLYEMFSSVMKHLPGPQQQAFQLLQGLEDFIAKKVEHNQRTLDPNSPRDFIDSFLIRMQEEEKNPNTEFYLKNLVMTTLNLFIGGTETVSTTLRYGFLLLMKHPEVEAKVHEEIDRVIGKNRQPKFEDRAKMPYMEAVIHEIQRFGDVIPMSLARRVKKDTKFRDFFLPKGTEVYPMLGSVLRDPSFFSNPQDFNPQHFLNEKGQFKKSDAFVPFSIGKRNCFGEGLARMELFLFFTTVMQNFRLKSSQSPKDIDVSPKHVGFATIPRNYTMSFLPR

[2] = molecular target: T1, CYP2A6; type: biochemical; conditions: 10 μM inhibitor; nicotine substrate; CYP2A6 microsomes
[3] = molecular target: T2, CYP2B6 (Homo sapiens, UniProt P20813); type: biochemical; conditions: human, microsomes from CYP2B6-overexpressing HEK293 cells, pH 7.4, probe nicotine (cotinine formation)
T2 sequence (P20813 1-491): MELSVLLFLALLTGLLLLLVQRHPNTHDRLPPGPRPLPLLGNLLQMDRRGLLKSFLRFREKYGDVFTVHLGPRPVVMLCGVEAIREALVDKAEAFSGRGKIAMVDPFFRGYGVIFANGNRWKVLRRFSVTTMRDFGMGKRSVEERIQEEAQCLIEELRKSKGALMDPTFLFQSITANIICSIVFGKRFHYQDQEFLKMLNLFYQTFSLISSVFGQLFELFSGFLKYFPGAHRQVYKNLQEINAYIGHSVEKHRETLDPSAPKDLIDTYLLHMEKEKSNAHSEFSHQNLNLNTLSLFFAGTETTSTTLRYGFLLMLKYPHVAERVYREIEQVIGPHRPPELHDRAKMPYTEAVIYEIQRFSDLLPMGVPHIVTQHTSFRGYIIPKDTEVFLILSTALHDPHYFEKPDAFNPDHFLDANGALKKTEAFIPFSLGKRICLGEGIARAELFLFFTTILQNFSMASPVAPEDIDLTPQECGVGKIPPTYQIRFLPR

[4] = molecular target: T3, UGT2B17 (Homo sapiens, UniProt O75795); type: biochemical; conditions: human, microsomes from UGT2B17-overexpressing HEK293 cells, pH 7.4, probe 3HC (30 mM), 3HC-Gluc formation
T3 sequence (O75795 24-530): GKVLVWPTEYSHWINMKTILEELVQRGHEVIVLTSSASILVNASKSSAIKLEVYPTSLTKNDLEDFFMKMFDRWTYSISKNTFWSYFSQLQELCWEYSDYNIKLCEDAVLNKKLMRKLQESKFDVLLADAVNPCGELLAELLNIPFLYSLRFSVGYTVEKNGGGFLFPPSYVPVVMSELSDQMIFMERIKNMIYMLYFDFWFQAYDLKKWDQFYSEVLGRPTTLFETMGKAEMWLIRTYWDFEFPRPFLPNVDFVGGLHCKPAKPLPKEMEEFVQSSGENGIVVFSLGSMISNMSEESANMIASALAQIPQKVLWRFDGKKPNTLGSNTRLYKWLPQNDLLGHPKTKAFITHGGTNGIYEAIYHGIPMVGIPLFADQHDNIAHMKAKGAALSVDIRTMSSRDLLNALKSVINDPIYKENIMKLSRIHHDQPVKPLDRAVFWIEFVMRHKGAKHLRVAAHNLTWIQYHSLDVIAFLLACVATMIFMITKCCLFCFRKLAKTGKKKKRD

[5] = molecular target: T4, UGT2B7 (Homo sapiens, UniProt P16662); type: biochemical; conditions: human, microsomes from UGT2B7-overexpressing HEK293 cells, pH 7.4, probe 3HC (30 mM), 3HC-Gluc formation
T4 sequence (P16662 24-529): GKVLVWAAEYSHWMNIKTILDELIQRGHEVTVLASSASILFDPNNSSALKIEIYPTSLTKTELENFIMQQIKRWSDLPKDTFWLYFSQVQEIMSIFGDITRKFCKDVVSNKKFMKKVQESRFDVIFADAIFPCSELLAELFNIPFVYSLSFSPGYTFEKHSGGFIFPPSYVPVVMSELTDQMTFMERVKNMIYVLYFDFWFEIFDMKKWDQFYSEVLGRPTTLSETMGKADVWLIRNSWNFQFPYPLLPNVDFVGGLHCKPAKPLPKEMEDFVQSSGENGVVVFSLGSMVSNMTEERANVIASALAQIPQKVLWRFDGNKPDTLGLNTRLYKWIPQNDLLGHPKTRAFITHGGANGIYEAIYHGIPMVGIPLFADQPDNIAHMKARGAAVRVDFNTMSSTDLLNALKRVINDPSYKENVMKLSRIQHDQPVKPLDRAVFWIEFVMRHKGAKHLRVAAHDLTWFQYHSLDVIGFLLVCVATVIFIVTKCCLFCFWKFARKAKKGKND

[6] = majority of tobacco users; cited from earlier work
[7] = test system: CYP2A6; conditions: cited from earlier work

In the case of `N[C@@H]1C[C@H]1c1ccccc1` (racemic) [tranylcypromine], the “inhibition of cotinine formation” value [1] is reported as 70% and the “inhibition of nornicotine formation” value [2] is reported as 95%.
With `COC(=O)[C@H](c1ccccc1Cl)N1CCc2sccc2C1` [clopidogrel] the inhibition at 30 min, 50 µM [3] was 60%.
`Cc1ccc(NC(=O)c2ccc(CN3CCN(C)CC3)cc2)cc1Nc1nccc(-c2cccnc2)n1` [imatinib] showed an inhibition at 200 µM [4] of at most 65% and an inhibition at 200 µM [5] of at most 65%.
In the case of `CN1CCC[C@H]1c1cccnc1` [nicotine], the “fraction of nicotine metabolized to cotinine by CYP2A6” value [6] is listed as “greater than 70%”.
In the case of `C#CCN(C)[C@H](C)Cc1ccccc1` [selegiline], the Ki [7] is listed as 4.6 µM.
